From ChEMBL document CHEMBL1201862, “PubChem BioAssay data set” (2004) come the findings set out here.

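Interpolation was linear, between the two tested concentrations surrounding the appropriate level; five concentrations were tested over 48 hours in 96-well plates. GI50 is the concentration that inhibits growth by half.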 The source made the active and inactive calls. Rule as the data show it: active = GI50 up to about 1.1 µM and inactive = higher.

Holding throughout (assay): NCI tumour cell line growth inhibition, 48 h
The subject of assay [1] is SNB-19.
Assay [2] deals with K562.
Assay [3] relates to HT-29.
The test system of assay [4] is SN12C.
The test system of assay [5] is A549.
Assay [6] deals with HL-60.
Assay [7] relates to M14.
For assay [8], the system named is HCC 2998.
For assay [9], the system named is 786-0.
The subject of assay [10] is SNB-75.
In assay [11] the test system is T47D.
The test system of assay [12] is SF-539.
Assay [13] has as its system EKVX.
In assay [14] the test system is UACC-62.
Assay [15] relates to COLO 205.
For assay [16], the system named is OVCAR-5.
Assay [17] relates to MOLT-4.
Assay [18] deals with Malme-3M.
The subject of assay [19] is IGROV-1.
The test system of assay [20] is OVCAR-4.

Regarding `CCSc1nc(=S)n(-c2ccccc2)c(C)c1C(C)=O`, the GI50 is > 94.6 µM (inactive) in [1]; > 100 µM (inactive) in [2]; > 100 µM (inactive) in assay [3]; > 100 µM (inactive) in assay [4]; > 100 µM (inactive) in [5]; > 100 µM (inactive) in assay [6]. Besides, the GI50 in assay [7], in assay [8], in [9], in assay [10], in assay [11] and in assay [12] was > 100 µM (inactive) in each case. The GI50 in assay [13], in [14], in [15], in assay [16], in [17] and in assay [18] was > 100 µM (inactive) throughout. In addition, the GI50 in assay [19] and in [20] was > 100 µM (inactive) throughout.

On to `O=C(OCc1ccccc1)c1ccc(NCc2cc(O)ccc2O)cc1`, for which the GI50 is 2.85 µM (inactive) in assay [1]; 1.29 µM (inactive) in assay [2]; 6.24 µM (inactive) in assay [3]; 1.38 µM (inactive) in assay [4]; 3.9 µM (inactive) in assay [5]; 0.303 µM (active) in assay [6]. For the same compound, the GI50 is 1.91 µM (inactive) in [7]; 2.15 µM (inactive) in [8]; 1.11 µM (active) in assay [9]; 0.906 µM (active) in assay [10]; 1.51 µM (inactive) in assay [11]; 0.902 µM (active) in [12]. Also, the GI50 in assay [13] was 1.75 µM (inactive); in [14], 1.56 µM (inactive); in [15], 1.47 µM (inactive); in assay [16], 3.85 µM (inactive); in assay [17], 0.535 µM (active); in assay [18] it was 1.56 µM (inactive). The results for the GI50 in assay [19] and in assay [20] were 1.23 µM (inactive) and 1.39 µM (inactive), respectively.

For `CC1(Br)Cc2ccccc2C1=O` (stereo not given), the GI50 in assay [1] is 33.3 µM (inactive); in assay [2] it was 3.33 µM (inactive); in assay [3], 4.36 µM (inactive); in [4], 7.59 µM (inactive); in [5], 12.5 µM (inactive); in assay [6] it was 2.79 µM (inactive). Further, the GI50 in assay [7] is 3.09 µM (inactive); in [8], > 100 µM (inactive); in assay [9], 2.15 µM (inactive); in [10] it was 13 µM (inactive); in [11] it was 9.31 µM (inactive); in [12], 4.98 µM (inactive). Besides, the GI50 in [13] was 3.27 µM (inactive); in [14] it was 1.29 µM (inactive); in [15], 4.35 µM (inactive); in assay [16], 3.43 µM (inactive); in [17], 2.13 µM (inactive); in assay [18], 3.36 µM (inactive). The figures for the GI50 in assay [19] and in assay [20] were 4.12 µM (inactive) and 6.89 µM (inactive), respectively.

With `CC(C)(Cl)C(Br)CC/C(=C/CCl)CBr.CC(C)(Cl)C(Br)CC/C(=C\CCl)CBr` (stereo not given), the GI50 in assay [1] was 2.1 µM (inactive); in assay [2], 1.72 µM (inactive); in assay [3], 1.85 µM (inactive); in [4], 2.49 µM (inactive); in assay [5] it was 14.4 µM (inactive); in assay [6], 0.802 µM (active). Also, the GI50 in assay [7] is 1.9 µM (inactive); in [8] it was 1.58 µM (inactive); in assay [9] it was 1.86 µM (inactive); in [10] it was 2.9 µM (inactive); in assay [11], 1.08 µM (active); in assay [12], 1.88 µM (inactive). Also, the GI50 is 8.97 µM (inactive) in [13]; 1.93 µM (inactive) in [14]; 2.4 µM (inactive) in assay [15]; 8.89 µM (inactive) in [16]; 1.34 µM (inactive) in assay [17]; 1.71 µM (inactive) in assay [18]. The GI50 in assay [19] was 2.31 µM (inactive); in assay [20] it was 2.34 µM (inactive).

For `CC1(C)C2CCC1C(=O)[C@@]1(C=CC(=O)CC1)C2` (stereo not given in full), the GI50 in assay [1], in assay [2], in assay [3], in [4], in [5] and in assay [6] was > 100 µM (inactive) in each case. Besides, the GI50 was > 100 µM (inactive) in [7]; > 100 µM (inactive) in assay [8]; > 100 µM (inactive) in [9]; 61.1 µM (inactive) in assay [10]; > 100 µM (inactive) in [11]; > 100 µM (inactive) in assay [12]. Further, the GI50 in [13], in assay [14], in assay [15], in [16], in assay [17] and in [18] was > 100 µM (inactive) throughout. Besides, the GI50 in assay [19] and in assay [20] was > 100 µM (inactive) in each case.

Regarding `Cc1nn(C(=O)c2ccc(Cl)cc2)c2c1C(c1ccccc1O)SC(=N)N2` (stereo not given), the GI50 in assay [1], in assay [2], in [3], in [4], in assay [5] and in assay [6] was > 10 µM (inactive) each time. In addition, the GI50 in assay [7], in [8], in [9], in assay [10], in assay [11] and in assay [12] was > 10 µM (inactive) throughout. Further, the GI50 in assay [13], in [14], in assay [15], in [16], in assay [17] and in assay [18] was > 10 µM (inactive) throughout. Moreover, the GI50 in assay [19] and in assay [20] was > 10 µM (inactive) in each case.

In the case of `Cc1nn(C(=O)c2ccncc2)c2c1C(c1cccc([N+](=O)[O-])c1)SC(=N)N2` (stereo not given), the GI50 in [1], in assay [2], in assay [3], in assay [4], in assay [5] and in assay [6] was > 10 µM (inactive) throughout. For the same compound, the GI50 in [7], in assay [8], in assay [9], in assay [10], in assay [11] and in [12] was > 10 µM (inactive) each time. Also, the GI50 in assay [13], in assay [14], in assay [15], in assay [16], in assay [17] and in assay [18] was > 10 µM (inactive) in each case. In addition, the GI50 in [19] and in [20] was > 10 µM (inactive) in each case.

With `CC(C)(Oc1ccc(Cl)cc1)C(=O)N(C(=O)N1CCC(c2ccccc2)CC1)c1ccccc1`, the GI50 in assay [1] was > 100 µM (inactive); in assay [2], 4.2 µM (inactive); in assay [3] it was 22.5 µM (inactive); in assay [4], 27.4 µM (inactive); in [5], 34.5 µM (inactive); in assay [6], 1.6 µM (inactive). In addition, the GI50 in assay [7] is 65 µM (inactive); in [8], 41.4 µM (inactive); in assay [9], > 100 µM (inactive); in [10], > 26.1 µM (inactive); in assay [11] it was 7 µM (inactive); in [12] it was > 100 µM (inactive). The GI50 was 11.1 µM (inactive) in assay [13]; > 57.5 µM (inactive) in assay [14]; 10 µM (inactive) in assay [15]; > 100 µM (inactive) in assay [16]; 7.05 µM (inactive) in [17]; 25.4 µM (inactive) in assay [18]. The figures for the GI50 in assay [19] and in [20] were > 53.2 µM (inactive) and > 100 µM (inactive), respectively.

As for `COc1cc2cc3c4cc(OC)c(OC)cc4cc[n+]3c(C)c2cc1OC.O=C([O-])CS(=O)(=O)O`, the GI50 in assay [1] was 17.7 µM (inactive); in [2] it was 61.1 µM (inactive); in assay [3], 53.3 µM (inactive); in assay [4], 3.27 µM (inactive); in assay [5], > 100 µM (inactive); in assay [6], 24.2 µM (inactive). Further, the GI50 in assay [7] was > 100 µM (inactive); in assay [8], > 100 µM (inactive); in [9], 88.3 µM (inactive); in [10], 12.3 µM (inactive); in assay [11] it was 26.8 µM (inactive); in assay [12] it was 42.7 µM (inactive). Besides, the GI50 in assay [13] was > 100 µM (inactive); in [14] it was 65.9 µM (inactive); in assay [15], 57 µM (inactive); in assay [16] it was > 100 µM (inactive); in assay [17] it was > 100 µM (inactive); in [18], > 100 µM (inactive). Also, the GI50 is 80.9 µM (inactive) in [19] and 17.7 µM (inactive) in assay [20].

Turning to `CCOC(=O)c1[nH]c(Br)c(-c2ccc(Br)cc2)c1Br`, the GI50 in [1] was 1.3 µM (inactive); in [2], 0.851 µM (active); in [3], 0.327 µM (active); in assay [4] it was 0.45 µM (active); in [5], 0.863 µM (active); in assay [6], 2.09 µM (inactive). The GI50 was 0.386 µM (active) in [7]; 5.79 µM (inactive) in assay [8]; 0.445 µM (active) in assay [9]; 0.327 µM (active) in assay [10]; 2.39 µM (inactive) in assay [11]; 0.441 µM (active) in assay [12]. The GI50 is 7.18 µM (inactive) in [13]; 0.234 µM (active) in [14]; 0.385 µM (active) in assay [15]; 2.5 µM (inactive) in assay [16]; 0.367 µM (active) in assay [17]; 0.38 µM (active) in assay [18]. Further, the GI50 in [19] is 0.601 µM (active); in assay [20] it was 1.3 µM (inactive).
